Target: T1, NMDA receptor glycine site (Rattus norvegicus, UniProt P35439)
T1 construct: tissue Analytical Biological Services Inc; host or cells: rat brain membranes (cerebral cortex and hippocampus, male Sprague Dawley rats)
Test: Test A: Inhibition of binding of [3H]-MDL105,519
Settings: inhibition of 1.2 nM [3H]MDL105,519 binding to brain membranes; table does not say rat or human membranes
Text: Test A: Inhibition of Binding of [^3H]-MDL105,519:
Binding of compounds to the NMDA receptor glycine site may be assessed by measuring the ability of test compounds to inhibit the binding of tritiated MDL105,519 to brain membranes bearing the receptor.
Briefly, fresh brain tissue including cerebral cortex and hippocampus from male Sprague Dawley rats was homogenized in 0.32 M sucrose and centrifuged at low speed to separate cellular membranes from other cellular components. The membranes were then washed 3 times using deionized water, followed by treatment with 0.04% Triton X-100. Finally, membranes were washed six times in 50 mM Tris citrate buffer, pH 7.4, and frozen at −80° C. until use.
[^3H]MDL105,519 (72 Ci/mmol) was purchased from Amersham. Cold MDL105,519 was purchased from Sigma/RBI. […] On the day of the experiment, brain membranes were thawed at room temperature and suspended in 50 mM tris acetate buffer, pH 7.4 (“TAB”). Seventy-five micro grams per milliliter protein (by using the BioRad dye) were used for competition binding. The experiments were carried out using 96-well plates. […] Non specific binding was determined by using 100 μM of unlabeled MDL105,519. […] After incubation, unbound [^3H]MDL105,519 was removed by filtration onto GF/B Unifilter plates using a Packard harvester. Filters were washed four times with ice cold TAB (total of 1.2 mL buffer). The plates were dried overnight at room temperature and bound radioactivity was measured on a Packard TopCount after the addition of 45 μL per well of the MICROSCINT O.
Human Brain Membranes: Human brain membranes were obtained from Analytical Biological Services Inc., and assays were performed as described for rat membranes.
Data analysis: Data was analyzed using a Microsoft Excel spreadsheet and GraphPad Prizm software and potency of compounds is expressed as the Ki (nM).

Row | Structure (SMILES) | Ki
1 | Cc1cc(Cn2nc(O)c3[nH]c4cc(Cl)ccc4c(=O)c3c2=O)ccc1OC(=O)N1CCOCC1 [Ex. 12, Morpholine-4-carboxylic acid 4-(7-chloro-4-hydroxy-1,10-dioxo-5,10-dihydro-1H-pyridazino[4,5-b]quinolin-2-ylmethyl)-2-methyl-phenyl ester] | 267 nM
2 | COc1ccc(Cn2nc(O)c3[nH]c4cc(Cl)ccc4c(=O)c3c2=O)cc1OC(=O)N(C)C [Ex. 14, Dimethyl-carbamic acid 5-(7-chloro-4-hydroxy-1,10-dioxo-5,10-dihydro-1H-pyridazino[4,5-b]quinolin-2-ylmethyl)-2-methoxy-phenyl ester] | 165 nM
3 | Cc1cc(Cn2nc(O)c3[nH]c4cc(Cl)ccc4c(=O)c3c2=O)ccc1OC(=O)N(C)c1ccccc1 [Ex. 13, Methyl-phenyl-carbamic acid 4-(7-chloro-4-hydroxy-1,10-dioxo-5,10-dihydro-1H-pyridazino[4,5-b]quinolin-2-ylmethyl)-2-methyl-phenyl ester] | 59 nM
4 | COc1ccc(Cn2nc(O)c3[nH]c4cc(Cl)ccc4c(=O)c3c2=O)cc1OC(=O)N1CCOCC1 [Ex. 16, Morpholine-4-carboxylic acid 5-(7-chloro-4-hydroxy-1,10-dioxo-5,10-dihydro-1H-pyridazino[4,5-b]quinolin-2-ylmethyl)-2-methoxy-phenyl ester] | 86.6 nM
